In brackets after ≈: the same amount, converted by molar mass. Like-named read-outs stand apart in the source and are kept apart here.
Experiments:
M. kansasii = test: Drug susceptibility of non-tuberculous slow-growing mycobacteria, MGIT960; type: cell-based
E. coli = test: MIC against gram-negative bacteria; type: cell-based; conditions: Escherichia coli, read-out: MIC
From the text: Agents Chemother. 2003, 47:1496-1502.

[1] = tested on: clinical methicillin resistant Staphylococcus aureus (MRSA) isolates; test: MIC against clinical MRSA isolates, LB microdilution assay; conditions: Staphylococcus aureus, MRSA
Method: Activity was assessed by determination of minimal inhibitory concentrations (MIC), as described in Pfister et al., Antimicrob. […] Cultures from single colonies were grown in LB medium and used for MIC tests in a microtiter plate format. Starting cultures contained 200 μl of bacterial cells at an optical density of 0.025 at 600 nm, and the respective drug was added in twofold series of dilution.

bacterial ribosomes = test: Ribosomal drug susceptibility (MIC) of recombinant bacteria; parameters: MIC, bacterial ribosomes: unit not given beside the values
[2] = guinea pig
From the text: “Treshold shift” is the difference in auditory threshold before and three weeks after treatment.
Guinea pigs received a systemic application of aminoglycosides once daily in the dosing indicated for 14 days, and were allowed to rest for 14 days before post-treatment ABR was taken.

cytohybrid ribosomes = test: Ribosomal drug susceptibility (MIC) of recombinant bacteria; parameters: MIC, cytohybrid ribosomes: unit not given beside the values
mitohybrid ribosomes = test: as above; parameters: MIC, mitohybrid ribosomes: unit not given beside the values
[3] = tested on: Cochlear explants from newborn mice; test: Cochleatoxicity in vitro, hair cell loss in cochlear explants; type: cell-based
Method: FIG. 1: Cochleatoxicity in vitro
(a) Dose-response relationship of drug-induced hair cell loss in cochlear explants. Hair cell loss was quantified along the entire length of the explant and plotted against drug concentration. %=% outer hair cells missing.
Cochlear explants from newborn mice were treated with 0.5 mM aminoglycoside compound for 24 h; subsequently hair cell damage was assessed by epifluorescence microscopy.

M. avium-intracellulare = test: Drug susceptibility of non-tuberculous slow-growing mycobacteria, MGIT960; type: cell-based
[4] = General toxicity in guinea pigs; type: in vivo; conditions: for observations (general toxicity): once daily for 14 days, monitored additional 14 days
From the text: Guinea pigs received a systemic application of aminoglycosides once daily in the dosing indicated in Table 9 for 14 days and were then monitored for an additional 14 days.

M. massiliense = test: MIC against non-tuberculous rapidly-growing mycobacteria, microdilution; type: cell-based; conditions: Mycobacteroides abscessus, read-out: minimal inhibitory concentration (MIC)
Method: (§1) Activity of apramycin was assessed in standard microdilution assays and is expressed as minimal inhibitory concentration (MIC) in μg/ml.

M. bolletii = test: as above; type: cell-based; conditions: Mycobacteroides abscessus, read-out: minimal inhibitory concentration (MIC)
Method: as §1

M. abscessus = test: as above; type: cell-based; conditions: Mycobacteroides abscessus; strain 500039/08 M. abscessus; read-out: minimal inhibitory concentration (MIC)
Method: as §1

CNC1C(OC2OC(CO)C(N)C(O)C2O)OC2CC(N)C(OC3C(N)CC(N)C(O)C3O)OC2C1O (stereo not shown) [Apramycin]
Activity (resistant/susceptible) (M. kansasii; strain 177227/06 M. kansasii, 1 μg/ml): R | Activity (resistant/susceptible) (M. kansasii; strain 177227/06 M. kansasii, 4 μg/ml): S | Activity (resistant/susceptible) (M. kansasii; strain 177227/06 M. kansasii, 10 μg/ml): S | Activity (resistant/susceptible) (M. kansasii; strain 180235/06 M. kansasii, 1 μg/ml): R | Activity (resistant/susceptible) (M. kansasii; strain 180235/06 M. kansasii, 4 μg/ml): S | Activity (resistant/susceptible) (M. kansasii; strain 180235/06 M. kansasii, 10 μg/ml): S | MIC (E. coli; E. coli AG01, clin. isol. (Gm^S)): 16 µg/mL (≈ 29.7 µM) | MIC (E. coli; E. coli AG02, clin. isol (Gm^S)): 16 to 32 µg/mL (≈ 29.7 to 59.3 µM) | MIC (E. coli; E. coli AG03, clin. isol (Gm^R)): 16 to 32 µg/mL (≈ 29.7 to 59.3 µM) | MIC (E. coli; E. coli AG06, BM13): 4 µg/mL (≈ 7.41 µM) | MIC (E. coli; E. coli AG07, BM13/pIP135, resistance mechanism AAC(3)): 8 µg/mL (≈ 14.8 µM) | MIC (E. coli; E. coli AG08, BM13/pIP055, resistance mechanism ANT(2″)): 4 µg/mL (≈ 7.41 µM) | MIC (E. coli; E. coli AG09, AAC(6′)-1B, resistance mechanism AAC(6′)): 8 µg/mL (≈ 14.8 µM) | MIC (E. coli; E. coli AG36, HB101/pAT197, resistance mechanism ANT(4′)): 4 µg/mL (≈ 7.41 µM) | MIC (E. coli; E. coli AG37, HB101/pAG21-1, resistance mechanism APH(3′)): 4 µg/mL (≈ 7.41 µM) | MIC ([1]; MRSA AG038, strain 70-26S Gm^S): 8 µg/mL (≈ 14.8 µM) | MIC ([1]; MRSA AG040, strain 87-26S Gm^S): 8 µg/mL (≈ 14.8 µM) | MIC ([1]; MRSA AG041, strain 98-25S Gm^S): 8 µg/mL (≈ 14.8 µM) | MIC ([1]; MRSA AG042, strain 101-06R Gm^R): 8 µg/mL (≈ 14.8 µM) | MIC ([1]; MRSA AG043, strain 01-08R Gm^R): 16 to 32 µg/mL (≈ 29.7 to 59.3 µM) | MIC ([1]; MRSA AG044, strain 07-12R Gm^R): 16 µg/mL (≈ 29.7 µM) | MIC ([1]; MRSA AG045, strain 08-12R Gm^R): 8 to 16 µg/mL (≈ 14.8 to 29.7 µM) | MIC ([1]; MRSA AG046, strain 12-06R Gm^R): 8 to 16 µg/mL (≈ 14.8 to 29.7 µM) | MIC ([1]; MRSA AG047, strain 18-06R Gm^R): 8 to 16 µg/mL (≈ 14.8 to 29.7 µM) | MIC ([1]; MRSA AG048, strain 20-06R Gm^R): 8 to 16 µg/mL (≈ 14.8 to 29.7 µM) | MIC ([1]; MRSA AG049, strain 23-12R Gm^R): 8 to 16 µg/mL (≈ 14.8 to 29.7 µM) | MIC ([1]; MRSA AG050, strain 31-06R Gm^R): 4 to 8 µg/mL (≈ 7.41 to 14.8 µM) | MIC ([1]; MRSA AG051, strain 36-06R Gm^R): 8 µg/mL (≈ 14.8 µM) | MIC ([1]; MRSA AG052, strain 53-14I Gm^R): 8 µg/mL (≈ 14.8 µM) | MIC ([1]; MRSA AG053, strain 56-06R Gm^R): 8 µg/mL (≈ 14.8 µM) | MIC, bacterial ribosomes (bacterial ribosomes; Table 7, 72 h incubation): 1-2 | MIC, wild type bacteria (bacterial ribosomes; Table 10): 1.0 to 2.0 µg/mL | in vivo auditory response (auditory brain stem response, threshold shift at 12 kHz) [2]: substantially less affected | MIC, cytohybrid ribosomes (cytohybrid ribosomes; Table 7, 72 h incubation): >1024 | MIC, bacteria with cytohybrid ribosome (cytohybrid ribosomes; Table 10): >256.0 µg/mL | MIC, mitohybrid ribosomes (mitohybrid ribosomes; Table 7, 72 h incubation): 1024 | MIC, bacteria with mitohybrid ribosome (mitohybrid ribosomes; Table 10): >256.0 µg/mL | In vitro cochleatoxicity (drug-induced hair cell loss in cochlear explants, dose-response) [3]: significantly less than that of gentamicin | Hair cell count ([3]; mouse, 24 h, 0.5 mM): no hair cells missing (<5%) | inner and outer hair cells missing / lost ([3]; mouse, 24 h, 0.5 mM): < 5% | Activity (resistant/susceptible) (M. avium-intracellulare; strain 182034/06 M. avium-intracellulare, 1 μg/ml): R | Activity (resistant/susceptible) (M. avium-intracellulare; strain 182034/06 M. avium-intracellulare, 4 μg/ml): S | Activity (resistant/susceptible) (M. avium-intracellulare; strain 182034/06 M. avium-intracellulare, 10 μg/ml): S | Activity (resistant/susceptible) (M. avium-intracellulare; strain 182124/07 M. avium-intracellulare, 1 μg/ml): R | Activity (resistant/susceptible) (M. avium-intracellulare; strain 182124/07 M. avium-intracellulare, 4 μg/ml): S | Activity (resistant/susceptible) (M. avium-intracellulare; strain 182124/07 M. avium-intracellulare, 10 μg/ml): S | Activity (resistant/susceptible) (M. avium-intracellulare; strain 182550/07 M. avium-intracellulare, 1 μg/ml): R | Activity (resistant/susceptible) (M. avium-intracellulare; strain 182550/07 M. avium-intracellulare, 4 μg/ml): S | Activity (resistant/susceptible) (M. avium-intracellulare; strain 182550/07 M. avium-intracellulare, 10 μg/ml): S | observations (general toxicity) ([4]; 152 mg/kg base (132 mg/kg gentamicin base equivalent)): normal weight gain | observations (general toxicity) ([4]; 184 mg/kg base (160 mg/kg gentamicin base equivalent)): normal weight gain | observations (general toxicity) ([4]; 217 mg/kg base (188 mg/kg gentamicin base equivalent)): normal weight gain | observations (general toxicity) ([4]; 355 mg/kg base (309 mg/kg gentamicin base equivalent)): less weight gain | Kidney histopathology, interpretation ([4]; 432 mg/kg): Mild, multifocal interstitial lymphoplasmacytic inflammation | observations (general toxicity) ([4]; 432 mg/kg base (376 mg/kg gentamicin base equivalent)): less weight gain | Kidney histopathology, renal mass affected in the sections ([4]; 432 mg/kg, lymphoplasmacytic aggregates in the renal interstitium): less than 5% | Kidney histopathology, interpretation ([4]; 649 mg/kg): Mild, multifocal tubular nephrosis | observations (general toxicity) ([4]; 649 mg/kg base (564 mg/kg gentamicin base equivalent)): less weight gain | Kidney histopathology, renal mass affected in the sections ([4]; 649 mg/kg, foci of tubular degeneration and regeneration in the superficial cortex): less than 5% | necropsy findings at the end of the experiment ([4]; one animal each at 432 and 649 mg/kg): no significant lesions or gross findings were observed | MIC (M. massiliense; strain 177217/10 M. massiliense): 4 µg/mL (≈ 7.41 µM) | MIC (M. massiliense; strain 186139/07 M. massiliense): 4 µg/mL (≈ 7.41 µM) | MIC (M. massiliense; strain 500044/09 M. massiliense): 2 µg/mL (≈ 3.71 µM) | MIC (M. bolletii; strain 179639/10 M. bolletii): 4 µg/mL (≈ 7.41 µM) | MIC (M. bolletii; strain 181739/08 M. bolletii): 4 µg/mL (≈ 7.41 µM) | MIC (M. bolletii; strain 183177/08 M. bolletii): 2 µg/mL (≈ 3.71 µM) | MIC (M. abscessus): 0.5 µg/mL (≈ 0.927 µM)
